According to publication PMC4567403 (Bioorganic & medicinal chemistry letters, 2015):

Assays:
[1] = Microsomal intrinsic clearance, mouse; format: in vitro ADME; settings: in words
[2] = Microsomal intrinsic clearance, human; format: in vitro ADME; settings: human microsomal studies, in words
[3] = biological target: T1, P450 1A2 (Homo sapiens, UniProt P05177); assay: P450 inhibition 1A2; format: in vitro ADME; settings: 1A2, at 30 μM
T1 sequence (P05177 1-516): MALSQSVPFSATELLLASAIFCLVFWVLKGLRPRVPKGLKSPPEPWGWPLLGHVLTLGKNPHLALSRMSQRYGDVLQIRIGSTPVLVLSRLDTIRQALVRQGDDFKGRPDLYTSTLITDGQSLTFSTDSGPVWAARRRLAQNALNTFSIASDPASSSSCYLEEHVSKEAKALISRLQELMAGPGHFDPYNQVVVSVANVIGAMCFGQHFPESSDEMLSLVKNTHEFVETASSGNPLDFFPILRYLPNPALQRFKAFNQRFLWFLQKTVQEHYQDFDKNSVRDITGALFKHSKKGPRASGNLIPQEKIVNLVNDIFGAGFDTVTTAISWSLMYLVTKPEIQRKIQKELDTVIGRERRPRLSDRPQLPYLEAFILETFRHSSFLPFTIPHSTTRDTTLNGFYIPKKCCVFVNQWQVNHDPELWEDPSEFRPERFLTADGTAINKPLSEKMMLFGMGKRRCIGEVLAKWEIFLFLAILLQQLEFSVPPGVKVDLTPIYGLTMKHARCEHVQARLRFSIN

[4] = biological target: P450 2C9 (Homo sapiens, UniProt P11712); assay: P450 inhibition 2C9; format: in vitro ADME; settings: 2C9, at 30 μM
[5] = biological target: P450 2D6 (Homo sapiens, UniProt P10635); assay: P450 inhibition 2D6; format: in vitro ADME; settings: 2D6, at 30 μM
[6] = biological target: P450 3A4 (Homo sapiens, UniProt P08684); assay: P450 inhibition 3A4; format: in vitro ADME; settings: 3A4, at 30 μM
[7] = Pharmacokinetics in rat; format: in vivo, male Sprauge- Dawley rats
[8] = test system: SW620 cell lines; settings: cited from earlier work
[9] = test system: e-cadherin expression in SW620 cells; assay: In-Cell-Western; format: cell-based; settings: 10 μM compound, average of two assessments

Chain of P450 2D6 (P10635 whole entry): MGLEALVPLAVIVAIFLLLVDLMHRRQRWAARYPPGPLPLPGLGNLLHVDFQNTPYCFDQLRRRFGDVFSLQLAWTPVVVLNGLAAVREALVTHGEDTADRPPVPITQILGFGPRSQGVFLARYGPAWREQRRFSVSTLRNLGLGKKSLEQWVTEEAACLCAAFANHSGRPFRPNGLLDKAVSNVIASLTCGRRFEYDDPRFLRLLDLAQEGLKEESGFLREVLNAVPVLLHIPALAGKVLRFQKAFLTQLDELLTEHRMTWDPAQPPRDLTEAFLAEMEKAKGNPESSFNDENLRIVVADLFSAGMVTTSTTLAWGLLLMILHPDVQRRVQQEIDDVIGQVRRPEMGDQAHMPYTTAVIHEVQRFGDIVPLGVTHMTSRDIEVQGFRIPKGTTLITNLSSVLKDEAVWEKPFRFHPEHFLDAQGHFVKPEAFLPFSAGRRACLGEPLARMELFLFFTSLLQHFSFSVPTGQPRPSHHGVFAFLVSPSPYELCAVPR
Chain of P450 3A4 (P08684 whole entry): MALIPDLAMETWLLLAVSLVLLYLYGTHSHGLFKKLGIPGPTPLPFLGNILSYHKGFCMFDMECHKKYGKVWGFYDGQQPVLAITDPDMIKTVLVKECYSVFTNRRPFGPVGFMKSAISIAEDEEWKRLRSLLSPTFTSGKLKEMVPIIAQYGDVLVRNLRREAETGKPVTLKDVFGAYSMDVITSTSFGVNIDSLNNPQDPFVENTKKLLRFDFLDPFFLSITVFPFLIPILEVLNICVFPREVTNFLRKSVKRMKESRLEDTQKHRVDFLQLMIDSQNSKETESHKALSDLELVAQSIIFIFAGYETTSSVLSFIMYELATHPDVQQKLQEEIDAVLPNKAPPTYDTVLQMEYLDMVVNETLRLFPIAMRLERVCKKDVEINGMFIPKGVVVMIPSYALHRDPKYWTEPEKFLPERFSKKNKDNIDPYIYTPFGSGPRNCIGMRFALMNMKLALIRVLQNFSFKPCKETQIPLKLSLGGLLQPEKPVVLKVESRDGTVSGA
Chain of P450 2C9 (P11712 whole entry): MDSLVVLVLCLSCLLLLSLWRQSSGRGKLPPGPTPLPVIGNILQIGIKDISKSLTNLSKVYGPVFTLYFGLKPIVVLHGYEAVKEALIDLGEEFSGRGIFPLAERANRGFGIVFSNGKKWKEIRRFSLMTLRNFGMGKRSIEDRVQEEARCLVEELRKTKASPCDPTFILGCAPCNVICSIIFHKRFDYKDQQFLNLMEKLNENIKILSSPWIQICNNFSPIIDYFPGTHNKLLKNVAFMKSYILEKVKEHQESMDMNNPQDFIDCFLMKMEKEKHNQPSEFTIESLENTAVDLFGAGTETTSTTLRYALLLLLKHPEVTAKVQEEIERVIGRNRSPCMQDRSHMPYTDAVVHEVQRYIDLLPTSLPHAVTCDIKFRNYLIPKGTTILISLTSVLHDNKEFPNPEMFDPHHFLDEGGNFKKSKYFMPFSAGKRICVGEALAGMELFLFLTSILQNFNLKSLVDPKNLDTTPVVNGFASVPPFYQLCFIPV

O=C(NCCCCNC(=O)c1cccnc1O)c1cc(-c2ccccc2)on1 [11r]
mouse clearance [1]: well in excess of hepatic blood flow
intrinsic clearance [2]: neglible
inhibition of P450 isozyme [3]: No inhibition
inhibition of P450 isozyme [4]: No inhibition
inhibition of P450 isozyme [5]: No inhibition
inhibition of P450 isozyme [6]: No inhibition
exposure ([7]; IV and IP dosing): suitable
half life ([7]; IV dose in rat, 1 mg/kg): long
EMT phenotype [8]: capable of reversing the EMT phenotype
invasive potential [8]: reducing the invasive potential

CC(CNC(=O)c1cc(-c2cccs2)on1)c1ccncc1 (stereo not drawn) [compound 7]
Fold change of e-cadherin expression [9]: failed to demonstrate significant restoration

O=C(NCCCn1ccnc1)c1noc2ccccc12 [compound 3]
Fold change of e-cadherin expression [9]: failed to demonstrate significant restoration

Cc1c(C(=O)NCCCCc2ccncc2)nn(C)c1-c1ccccc1 [compound 6]
Fold change of e-cadherin expression [9]: failed to demonstrate significant restoration

O=C(NCCCN1CCOCC1)c1n[nH]c2ccccc12 [compound 4]
Fold change of e-cadherin expression [9]: failed to demonstrate significant restoration

Cn1nc(C(=O)NCCCCc2ccncc2)cc1-c1ccccc1 [compound 5]
Fold change of e-cadherin expression [9]: failed to demonstrate significant restoration
